From article PMC7125560 (Bioorganic & Medicinal Chemistry, 2007)

Experiments:
[1] = tested on: SARS-CoV; settings: read-out: EC50 (SARS-CoV); cited from earlier work
[2] = tested on: HCV subgenomic replicon RNA; test: real-time RT-PCR quantification of replicon RNA; format: cell-based, hepatitis C virus (HCV); settings: two-day incubation

SMILES	EC50 [1] [µM]	replicon RNA amount ([2]; 12.5 μM)	replicon RNA amount ([2]; 25 μM) [%]
OC[C@H]1C[C@@H](n2cnc3c(Cl)ncnc32)[C@@H]1CO [Compound 6]	> 300	–	–
O=C(OC[C@H]1C[C@@H](n2cnc3c(Cl)ncnc32)[C@@H]1CO)c1ccccc1 [Compound 5]	14.5	–	–
O=C(OC[C@H]1O[C@@H](n2cnc3c(Cl)ncnc32)C[C@@H]1O)c1ccccc1 [Compound 10, 9-(5-O-benzoyl-β-D-2-deoxyribofuranosyl)-6-chloropurine]	–	approximately 45%	~6
